# Values of other authors in patent US9526785B2, “Pharmaceuticals for oral delivery” (Enteris BioPharma, Inc., priority 2013, dated 2016).
# What was measured:
# [1] = test system: Methicillin-Resistant Staphylococcus aureus (MRSA), Stenotrophomonas maltophilia, Haemophilus influenzae, and Neisseria gonorrhoeae; settings: reported values; cited from earlier work
# [2] = cited from earlier work
# [3] = known formulations; cited from earlier work
# [4] = reported; in humans; cited from earlier work
compound,measurement,setting,value
CN(C)c1cc(NC(=O)CNC(C)(C)C)c(O)c2c1C[C@H]1C[C@H]3[C@H](N(C)C)C(O)=C(C(N)=O)C(=O)[C@@]3(O)C(O)=C1C2=O [Tigecycline],MIC,[1],2 µg/mL
same,aqueous solubility,[2],approximately 300 mg/mL
same,maximal oral bioavailablity % (% F),[3],less than 5%
same,single dose half-life,[4],approximately 20 hours
